Data reported in publication PMC5681660, “Reduced hepatitis B and D viral entry using clinically applied drugs as novel inhibitors of the bile acid transporter NTCP” (Scientific Reports, 2017).
Where a name gives a salt, the structure may show the parent alone. Read-outs that look alike come from different tables or passages of the source.

Target: T1, human NTCP (Homo sapiens, UniProt Q14973)
T1 sequence (Q14973 1-349): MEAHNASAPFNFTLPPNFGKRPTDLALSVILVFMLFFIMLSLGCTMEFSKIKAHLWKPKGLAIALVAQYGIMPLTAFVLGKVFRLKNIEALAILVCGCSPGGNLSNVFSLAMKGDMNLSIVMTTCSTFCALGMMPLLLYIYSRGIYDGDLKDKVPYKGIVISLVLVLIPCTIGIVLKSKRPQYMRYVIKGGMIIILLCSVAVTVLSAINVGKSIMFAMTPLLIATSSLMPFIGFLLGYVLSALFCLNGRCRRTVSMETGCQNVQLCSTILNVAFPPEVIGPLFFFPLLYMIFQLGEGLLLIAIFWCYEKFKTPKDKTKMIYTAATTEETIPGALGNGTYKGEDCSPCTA
Assay: Screening taurocholate uptake assay (96-well, [14C]taurocholate, 10 µM drug)

[1] = ranking over the functional and the binding screening assay
[2] = screening taurocholate uptake, 10 µM drug
[3] = combined ranking of functional and binding screening assays
[4] = screening taurocholate uptake, 10 µM drug, B-score

| SMILES | Ranking score [1] | B-score functional assay [2] | Ranking score [3] | further results |
| --- | --- | --- | --- | --- |
| [H]/N=C(\N/C(=N/[H])NCCCCCCNC(=N)NC(=N)Nc1ccc(Cl)cc1)Nc1ccc(Cl)cc1 [Chlorhexidine] | 185.515 | 0.062 | – | – |
| CC(=O)O[C@]1(C(C)=O)CC[C@H]2[C@@H]3C=C(Cl)C4=CC(=O)CC[C@]4(C)[C@H]3CC[C@@]21C [Chlormadinone acetate] | 87.43 | -1.751 | – | – |
| Oc1c(Cl)cc(Cl)c2cccnc12 [Chloroxine] | – | -0.339 | 538.476 | – |
| NC(=O)OCC(O)COc1ccc(Cl)cc1 (stereo not drawn) [Chlorphensin carbamate] | – | – | 1211.24 | B-score functional assay [4]: 3.271 |
| CN(C)CCCN1c2ccccc2Sc2ccc(Cl)cc21 [Chlorpromazine hydrochloride] | 173.367 | 1.542 | – | – |
| NS(=O)(=O)c1cc(C2(O)NC(=O)c3ccccc32)ccc1Cl (stereo not drawn) [Chlorthalidone] | – | -1.121 | 532.184 | – |
| COCCOC(=O)C1=C(C)NC(C)=C(C(=O)OC/C=C/c2ccccc2)C1c1cccc([N+](=O)[O-])c1 (stereo not drawn) [Cilnidipine] | – | 0.219 | 582.255 | – |
| CN/C(=N/CCSCc1nc[nH]c1C)NC#N [Cimetidine] | 269.583 | -0.365 | – | – |
| CC(C)(Oc1ccc(C2CC2(Cl)Cl)cc1)C(=O)O (stereo not drawn) [Ciprofibrate] | – | 0.025 | 539.316 | – |
| COc1cc(N)c(Cl)cc1C(=O)NC1CCN(CCCOc2ccc(F)cc2)CC1OC (stereo not drawn) [Cisapride] | 235.1 | -0.847 | – | – |
| CN(C)CCCC1(c2ccc(F)cc2)OCc2cc(C#N)ccc21 (stereo not drawn) [Citalopram Hydrobromide] | 277.496 | -1.909 | – | – |
| Nc1nc(Cl)nc2c1ncn2[C@H]1C[C@H](O)[C@@H](CO)O1 [Cladribine] | 277.042 | -0.011 | – | – |
| CC(C)(C)NCC(O)c1cc(Cl)c(N)c(Cl)c1 (stereo not drawn) [Clenbuterol hydrochloride] | – | -0.705 | 497.397 | – |
| Oc1c(I)cc(Cl)c2cccnc12 [Clioquinol] | – | 0.225 | 627.53 | – |
| CCC(=O)O[C@]1(C(=O)CCl)[C@@H](C)C[C@H]2[C@@H]3CCC4=CC(=O)C=C[C@]4(C)[C@@]3(F)[C@@H](O)C[C@@]21C [Clobetasol propionate] | 265.371 | -0.819 | – | – |
| CC(CN(C)C)C(C)(O)Cc1ccc(Cl)cc1.Cl (stereo not drawn) [Clobutinol hydrochloride] | – | -0.006 | 492.244 | – |
| C[C@@H]1C[C@H]2[C@@H]3C[C@H](F)C4=CC(=O)C=C[C@]4(C)[C@@]3(Cl)[C@@H](O)C[C@]2(C)[C@H]1C(=O)COC(=O)C(C)(C)C [Clocortolone pivalate] | – | – | 1150.27 | B-score functional assay [4]: 4.298 |
| CCCCCCC[N+](CC)(CC)CCCCc1ccc(Cl)cc1.Cc1ccc(S(=O)(=O)[O-])cc1 [Clofilium tosylate] | 143.363 | -2.506 | – | – |
| Clc1cccc(Cl)c1N=C1NCCN1 [Clonidine hydrochloride] | – | 0.689 | 587.566 | – |
| C[C@@H]1CCC[C@H](C)N1NC(=O)c1ccc(Cl)c(S(N)(=O)=O)c1 [Clopamide] | 216.069 | -0.164 | – | – |
| C#CCN(C)CCCOc1ccc(Cl)cc1Cl [Clorgyline hydrochloride] | – | 0.335 | 645.563 | – |
| Cc1cc(C(C#N)c2ccc(Cl)cc2)c(Cl)cc1NC(=O)c1cc(I)cc(I)c1O (stereo not drawn) [Closantel] | 203.568 | -0.508 | – | – |
| Clc1ccccc1C(c1ccccc1)(c1ccccc1)n1ccnc1 [Clotrimazole] | 204.208 | -1.203 | – | – |
| Cc1onc(-c2ccccc2Cl)c1C(=O)N[C@@H]1C(=O)N2[C@@H]1SC(C)(C)[C@@H]2C(=O)[O-].[Na+] [Cloxacillin sodium salt] | 243.228 | 0.027 | – | – |
| COc1cc2c(c(OC)c1OC)-c1ccc(OC)c(=O)cc1[C@@H](NC(C)=O)CC2 [Colchicine] | – | – | – | B-score functional assay: -0.631 |
| CN1CCN(C(c2ccccc2)c2ccccc2)CC1.Cl [Cyclizine hydrochloride] | – | -0.953 | 578.424 | – |
| C[C@@H]1C[C@@H]([C@H](O)CC2CC(=O)NC(=O)C2)C(=O)[C@@H](C)C1 [Cycloheximide] | – | 0.172 | 464.697 | – |

| SMILES | Ranking score [1] | B-score functional assay [2] | Ranking score [3] | further results |
| --- | --- | --- | --- | --- |
| CN(C)CCOC(=O)C(c1ccccc1)C1(O)CCCC1 (stereo not drawn) [Cyclopentolate hydrochloride] | – | -0.521 | 624.063 | – |
| Nc1ccc(S(=O)(=O)c2ccc(N)cc2)cc1 [Dapsone] | 186.888 | 0.012 | – | – |
| CC(=O)N(O)CCCCCNC(=O)CCC(=O)N(O)CCCCCNC(=O)CCC(=O)N(O)CCCCCN [Deferoxamine mesylate] | 277.171 | -0.936 | – | – |
| CC[N+](CC)(CC(=O)Nc1c(C)cccc1C)Cc1ccccc1 [Denatonium benzoate] | – | -0.069 | 531.85 | – |
| CNCCCN1c2ccccc2CCc2ccccc21 [Desipramine hydrochloride] | – | – | – | B-score functional assay (Prestwick library screen, taurocholate uptake, 10 µM drug): 0.022; Ranking score (ranking score beside the functional and binding assay B-scores of the screen): 719.8 |
| CC(=O)OCC(=O)[C@@]1(O)[C@H](C)C[C@H]2[C@@H]3CCC4=CC(=O)C=C[C@]4(C)[C@@]3(F)[C@@H](O)C[C@@]21C [Dexamethasone acetate] | – | 0.046 | 586.678 | – |
| CC(=O)Oc1cccc2c1C(=O)c1c(OC(C)=O)cc(C(=O)O)cc1C2=O [Diacerein] | 199.08 | -4.175 | – | – |
| CN(C)CCN1C(=O)c2ccccc2N(C)c2ccccc21.Cl [Dibenzepine hydrochloride] | – | -0.713 | 501.825 | – |
| CCCCOc1cc(C(=O)NCCN(CC)CC)c2ccccc2n1 [Dibucaine] | – | – | 1210.75 | B-score functional assay [4]: 1.579 |
| N#CC(c1ccc(Cl)cc1)c1c(Cl)cc(-n2ncc(=O)[nH]c2=O)cc1Cl (stereo not drawn) [Diclazuril] | 46.9894 | -9.074 | – | – |
| O=C(O)Cc1ccccc1Nc1c(Cl)cccc1Cl [Diclofenac sodium] | – | -1.237 | 464.103 | – |
| CC/C(=C(/CC)c1ccc(O)cc1)c1ccc(O)cc1 [Diethylstilbestrol] | 262.907 | -0.349 | – | – |
| O=C(O)c1cc(-c2ccc(F)cc2F)ccc1O [Diflunisal] | 134.198 | -4.496 | – | – |
| CN[C@@H]1[C@H](O[C@H]2[C@H](O[C@H]3[C@H](O)[C@@H](O)[C@H](NC(=N)N)[C@@H](O)[C@@H]3NC(=N)N)O[C@@H](C)[C@]2(O)CO)O[C@@H](CO)[C@H](O)[C@H]1O [Dihydrostreptomycin sulfate] | 143.478 | -2.479 | – | – |
| COc1cc(C(=O)OCCCN2CCCN(CCCOC(=O)c3cc(OC)c(OC)c(OC)c3)CC2)cc(OC)c1OC.Cl.Cl [Dilazep dihydrochloride] | – | -0.659 | 649.692 | – |
| CN(C(=O)C(Cl)Cl)c1ccc(OC(=O)c2ccco2)cc1 [Diloxanide furoate] | – | – | 1159.98 | B-score functional assay [4]: 1.688 |
| CCCCc1cc2ccccc2c(OCCN(C)C)n1 [Dimethisoquin hydrochloride] | 238.967 | -0.419 | – | – |
| CCCCC[C@H](O)/C=C/[C@@H]1[C@@H](C/C=C\CCCC(=O)O)[C@@H](O)C[C@H]1O [Dinoprost trometamol] | – | 0.508 | 615.067 | – |
| COc1ccc(-c2cc(=O)c3c(O)cc(O[C@@H]4O[C@H](CO[C@@H]5O[C@@H](C)[C@H](O)[C@@H](O)[C@H]5O)[C@@H](O)[C@H](O)[C@H]4O)cc3o2)cc1O [Diosmin] | 207.123 | -1.635 | – | – |
| C[N+]1(C)CCC(=C(c2ccccc2)c2ccccc2)CC1 [Diphemanil methylsulfate] | – | – | 1220.85 | B-score functional assay [4]: 2.82 |
| CN1CCC(OC(c2ccccc2)c2ccccc2)CC1 [Diphenylpyraline hydrochloride] | 142.127 | -0.425 | – | – |
| CNCC(O)c1ccc(OC(=O)C(C)(C)C)c(OC(=O)C(C)(C)C)c1 (stereo not drawn) [Dipivefrin hydrochloride] | – | – | 1200.98 | B-score functional assay [4]: 1.926 |
| CCN(CC)C(=S)SSC(=S)N(CC)CC [Disulfiram] | 82.3772 | -4.037 | – | – |
| C[C@]12N[C@H](Cc3ccccc31)c1ccccc12 [Dizocilpine maleate] | – | -0.357 | 484.42 | – |
| CC(=O)O[C@@]12CO[C@@H]1C[C@H](O)[C@@]1(C)C(=O)[C@H](O)C3=C(C)[C@@H](OC(=O)[C@H](O)[C@@H](NC(=O)OC(C)(C)C)c4ccccc4)C[C@@](O)([C@@H](OC(=O)c4ccccc4)[C@H]21)C3(C)C [Docetaxel] | 106.066 | -5.513 | – | – |
| CN(CCOc1ccc(NS(C)(=O)=O)cc1)CCc1ccc(NS(C)(=O)=O)cc1 [Dofetilide] | – | -0.213 | 626.449 | – |
